≈ marks a conversion by molar mass, not a printed value.
Experiments:
[1] = test system: Chlamydia pneumoniae; assay: Antimicrobial activity against Chlamydophila pneumoniae infected in human Hep2 cells after 72 hrs by fluorescence assay; format: functional, HEp-2
[2] = test system: Chlamydia trachomatis; assay: Antimicrobial activity against Chlamydia trachomatis after 72 hrs by twofold serial dilution method; format: functional
[3] = test system: Chlamydia pneumoniae; assay: Antimicrobial activity against Chlamydophila pneumoniae infected in human Hep2 cells after 72 hrs by twofold serial dilution method; format: functional, HEp-2
[4] = test system: Chlamydia trachomatis; assay: Antimicrobial activity against Chlamydia trachomatis after 72 hrs by fluorescence assay; format: functional
[5] = test system: Mycoplasma genitalium; assay: Antimicrobial activity against Mycoplasma genitalium by microtiter plate reader assay; format: functional; details: Mycoplasmoides genitalium
[6] = test system: Metamycoplasma hominis; assay: Antimicrobial activity against Mycoplasma hominis by microtiter plate reader assay; format: functional
[7] = test system: Ureaplasma urealyticum; assay: Antimicrobial activity against Ureaplasma urealyticum by microtiter plate reader assay; format: functional
[8] = test system: Neisseria gonorrhoeae; assay: Antimicrobial activity against Neisseria gonorrhoeae by microtiter plate reader assay; format: functional
[9] = test system: Mycoplasmoides pneumoniae; assay: Antimicrobial activity against Mycoplasma pneumoniae by microtiter plate reader assay; format: functional

Compound	MBC90 [1]	MIC50 [2]	MIC90 [2]	MIC50 [3]	MIC90 [3]	MBC90 [4]	MIC [5]	MIC [6]	MIC [7]	MIC [8]	MIC [9]
CC[C@H]1OC(=O)[C@H](C)C(=O)[C@H](C)[C@@H](O[C@@H]2O[C@H](C)C[C@H](N(C)C)[C@H]2O)[C@](C)(OC)C[C@@H](C)C(=O)[C@H](C)[C@H]2N(CCCCn3cnc(-c4cccnc4)c3)C(=O)O[C@]12C [TELITHROMYCIN]	60 ng/mL (≈ 73.9 nM)	60 ng/mL (≈ 73.9 nM)	60 ng/mL (≈ 73.9 nM)	60 ng/mL (≈ 73.9 nM)	60 ng/mL (≈ 73.9 nM)	60 ng/mL (≈ 73.9 nM)					
C[C@H]1c2cccc(O)c2C(=O)C2=C(O)[C@]3(O)C(=O)C(C(N)=O)=C(O)[C@@H](N(C)C)[C@@H]3[C@@H](O)[C@@H]21.O [DOXYCYCLINE]	60 ng/mL	60 ng/mL	60 ng/mL	60 ng/mL	60 ng/mL	60 ng/mL					
CC[C@H]1OC(=O)[C@@](C)(F)C(=O)[C@H](C)[C@@H](O[C@@H]2O[C@H](C)C[C@H](N(C)C)[C@H]2O)[C@](C)(OC)C[C@@H](C)C(=O)[C@H](C)[C@H]2N(CCCCn3cc(-c4cccc(N)c4)nn3)C(=O)O[C@]12C [SOLITHROMYCIN]	250 ng/mL (≈ 296 nM)	250 ng/mL (≈ 296 nM)	250 ng/mL (≈ 296 nM)	250 ng/mL (≈ 296 nM)	250 ng/mL (≈ 296 nM)	250 ng/mL (≈ 296 nM)	≤ 0.03 ng/mL	≤ 0.03 ng/mL	0.03 ng/mL (≈ 0.0355 nM)	≤ 250 ng/mL	≤ 500 ng/mL
CC[C@H]1OC(=O)[C@H](C)[C@@H](O[C@H]2C[C@@](C)(OC)[C@@H](O)[C@H](C)O2)[C@H](C)[C@@H](O[C@@H]2O[C@H](C)C[C@H](N(C)C)[C@H]2O)[C@](C)(OC)C[C@@H](C)C(=O)[C@H](C)[C@@H](O)[C@]1(C)O [CLARITHROMYCIN]	60 ng/mL (≈ 80.2 nM)	60 ng/mL (≈ 80.2 nM)	60 ng/mL (≈ 80.2 nM)	60 ng/mL (≈ 80.2 nM)	60 ng/mL (≈ 80.2 nM)	60 ng/mL (≈ 80.2 nM)					
CC[C@H]1OC(=O)[C@H](C)[C@@H](O[C@H]2C[C@@](C)(OC)[C@@H](O)[C@H](C)O2)[C@H](C)[C@@H](O[C@@H]2O[C@H](C)C[C@H](N(C)C)[C@H]2O)[C@](C)(O)C[C@@H](C)CN(C)[C@H](C)[C@@H](O)[C@]1(C)O [AZITHROMYCIN]		125 ng/mL (≈ 167 nM)	125 ng/mL (≈ 167 nM)	125 ng/mL (≈ 167 nM)	125 ng/mL (≈ 167 nM)						
